Values quoted from earlier work in US20210059962A1, “STIMULATION OF T REGULATORY CELLS BY CANNABIDIOL AS A MEANS OF TREATING ARTHRITIS AND AUTOIMMUNITY” (priority 2019, published 2021).

SMILES	IL-10 production (HUT-78 T-cells)	IL-8 production (eosinophilic cells)	MIP-lbeta production (eosinophilic cells)	IL-8 production (B-cells)	MIP-1alpha production (B-cells)	MIP-1beta production (B-cells)	constitutive production of IL-8 (NK cells; constitutive)	constitutive production of MIP-lalpha (NK cells; constitutive)	constitutive production of MIP-lbeta (NK cells; constitutive)	constitutive production of RANTES (NK cells; constitutive)	phorbol ester stimulated production of GM-CSF (NK cells; phorbol ester stimulated)	phorbol ester stimulated production of IFN-gamma (NK cells; phorbol ester stimulated)	phorbol ester stimulated production of TNF-alpha (NK cells; phorbol ester stimulated)	MIP-lbeta production (HTLV-1 positive B-cells)
C=C(C)[C@@H]1CCC(C)=C[C@H]1c1c(O)cc(CCCCC)cc1O [CBD, 2-[3-methyl-6-(1-methylethenyl)-2-cyclohexen-1-yl]-5-pentyl-1,3-benzenedi-of]	strongly inhibited													
CCCCCc1cc(O)c2c(c1)OC(C)(C)[C@@H]1CCC(C)=C[C@@H]21 [THC, delta9 tetrahydrocannabinol]	strongly inhibited	doubled	tripled	tripled	tripled	tripled	decreased	decreased	decreased	decreased	decreased	decreased	decreased	inhibited
